In patent publication EP1048659A1, “RETINOID RECEPTOR AGONISTS” (Institute of Medicinal Molecular Design, Inc., priority 1997, dated 1999):
Several values for one entry are separate records, joined by “and”; a condition that tells them apart may be missing. Identical values can stand only once.

System: Promyelocytic leukemia cell strain HL-60
Test: HL-60 cell differentiation induction (morphological change, NBT reduction), each compound alone and with coexisting retinoid Am80
Type: cell-based
Details: for Ratio of differentiation-induced cells with coexistence of 1×10^-9 Am80: Table 1; for Ratio of differentiation-induced cells with coexistence of 1×10^-10 Am80: Table 2; for Ratio of differentiation-induced cells with coexistence of 3×10^-9 Am80: Table 3; for cell differentiation ability of the compound per se: compound used alone; for effect on the activity of the coexisting Am80 at a high concentration: compound at 1×10^-6 M; for ratios of differentiated cells, Coexisting retinoid (concentration) Am80 (-9): compound fixed at 1×10^-6 M with Am80 (-9); for ratios of differentiated cells, Coexisting retinoid (concentration) Am80 (-9.5): compound fixed at 1×10^-6 M with Am80 (-9.5); for ratios of differentiated cells, Coexisting retinoid (concentration) Am80 (-10): compound fixed at 1×10^-6 M with Am80 (-10); for ratios of differentiated cells, Coexisting retinoid (concentration) None: compound fixed at 1×10^-6 M, alone
Method: Cell differentiation-inducing activity of each compound of the present invention used alone, and effect on cell differentiation-inducing activity of coexisting retinoid were examined. As a comparative or coexisting retinoid, Am80 ([4-[(5,6,7,8-tetrahydro-5,5,8,8-tetramethyl-2-naphthalenyl)carbamoyl]benzoic acid] was used. Promyelocytic leukemia cell strain HL-60 was used, and differentiation into granulocytic cells was determined by observing morphological change and measuring ability to reduce nitroblue tetrazolium (NBT). The ratios of differentiated cells shown in the following tables were calculated from the ability to reduce NBT. (A) Concentration-dependent differentiation-inducing ability of each compound alone and concentration-dependent effect on the differentiation-inducing ability of 1×10^-9 M Am80 were measured. […] Table 1 (B) Concentration-dependent differentiation-inducing ability of each compound alone and concentration-dependent effect on the differentiation inducing ability of 1×10^-10 M Am80 were measured. […] Table 2 (C) Concentration-dependent differentiation-inducing ability of each compound alone and concentration-dependent effect on the differentiation inducing ability of 3×10^-9 M Am80 were measured.

[1] = (A) 1×10^-9 M Am80, enhancement at a concentration which did not give the cell differentiation-inducing ability, result in words
[2] = compound concentration -7, with 1×10^-9 M Am80
[3] = compound concentration -8, with 1×10^-9 M Am80
[4] = (B) 1×10^-10 M Am80, result in words
[5] = compound concentration -6, with 1×10^-10 M Am80
[6] = compound concentration -7, with 1×10^-10 M Am80
[7] = compound concentration -8, with 1×10^-10 M Am80
[8] = compound concentration -6, with 1×10^-9 M Am80
[9] = compound concentration -6, with 3×10^-9 M Am80
[10] = compound concentration -7, with 3×10^-9 M Am80
[11] = compound concentration -8, with 3×10^-9 M Am80

Structure (SMILES): CC1(C)CCC(C)(C)c2cc(NC(=O)c3ccc(C(=O)O)cc3)ccc21 [Am80, 4-[(5,6,7,8-tetrahydro-5,5,8,8-tetramethyl-2-naphthalenyl)carbamoyl]benzoic acid, reference compound]
- Ratio of differentiation-induced cells with coexistence of 1×10^-9 Am80 (test compound concentration None: 1×10^-9 M Am80 alone, control): 49% and 37% and 48%
- Ratio of differentiation-induced cells with coexistence of 1×10^-10 Am80 (test compound concentration None: 1×10^-10 M Am80 alone, control): 4% and 11%
- Ratio of differentiation-induced cells with coexistence of 3×10^-9 Am80 (test compound concentration None: 3×10^-9 M Am80 alone, control): 44 and 51
- ratios of differentiated cells, Am80 (-9) (Table 4, Compound None: Am80 alone at -9): 80
- ratios of differentiated cells, Am80 (-9.5) (Table 4, Compound None: Am80 alone at -9.5): 53
- ratios of differentiated cells, Am80 (-10) (Table 4, Compound None: Am80 alone at -10): 8.5

Structure (SMILES): C/C(=C\c1ccc(/C=C2\SC(=O)NC2=O)cc1)c1ccc2c(c1)C(C)(C)CCC2(C)C [TZ91]
- effect on the activity of the coexisting Am80 [1]: enhanced the activity of the coexisting Am80
- Ratio of differentiation-induced cells with coexistence of 1×10^-9 Am80 [2]: 87%
- Ratio of differentiation-induced cells with coexistence of 1×10^-9 Am80 [3]: 62%
- Ratio of differentiation-induced cells with coexistence of 1×10^-9 Am80 (compound concentration -9, with 1×10^-9 M Am80): 58%
- cell differentiation ability of the compound per se (result in words): had cell differentiation ability

Structure (SMILES): O=C1NC(=O)/C(=C/c2cccc(C(=O)NCc3ccc(C(F)(F)F)cc3)c2)S1 [TZ105, reference compound]
- effect on the activity of the coexisting retinoid Am80 ((E) comparison N-benzyl derivative, concentrations not given, result in words): failed to effect the activity of the coexisting retinoid Am80
- cell differentiation ability of the compound per se (result in words): completely inactive

Structure (SMILES): CC(C)(C)c1cc(C(=O)Nc2ccc(/C=C3\SC(=O)NC3=O)cc2)cc(C(C)(C)C)c1 [TZ151]
- effect on the activity of the coexisting Am80 [4]: enhanced the activity of the coexisting Am80
- Ratio of differentiation-induced cells with coexistence of 1×10^-10 Am80 [5]: 83%
- Ratio of differentiation-induced cells with coexistence of 1×10^-10 Am80 [6]: 43%
- Ratio of differentiation-induced cells with coexistence of 1×10^-10 Am80 [7]: 12%
- cell differentiation ability of the compound per se (result in words): had cell differentiation ability

Structure (SMILES): CN(C(=O)c1cc(C(C)(C)C)cc(C(C)(C)C)c1)c1ccc(/C=C2\SC(=O)NC2=O)cc1 [TZ161]
- effect on the activity of the coexisting Am80 at a high concentration [4]: acted to suppress the activity
- effect on the activity of the coexisting Am80 [4]: enhanced the activity of the coexisting Am80
- Ratio of differentiation-induced cells with coexistence of 1×10^-10 Am80 [5]: 3.8%
- Ratio of differentiation-induced cells with coexistence of 1×10^-10 Am80 [6]: 25%
- Ratio of differentiation-induced cells with coexistence of 1×10^-10 Am80 [7]: 12%
- cell differentiation ability of the compound per se (result in words): inactive

Structure (SMILES): CC1(C)CCC(C)(C)c2cc(C(=O)Nc3ccc(/C=C4\SC(=O)NC4=O)cc3)ccc21 [TZ181]
- effect on the activity of the coexisting Am80 [1]: enhanced the activity of the coexisting Am80
- Ratio of differentiation-induced cells with coexistence of 1×10^-9 Am80 [8]: 6%
- Ratio of differentiation-induced cells with coexistence of 1×10^-9 Am80 [2]: 58%
- Ratio of differentiation-induced cells with coexistence of 1×10^-9 Am80 [3]: 53%
- cell differentiation ability of the compound per se (result in words): had cell differentiation ability

Structure (SMILES): CN(C(=O)c1ccc2c(c1)C(C)(C)CCC2(C)C)c1ccc(/C=C2\SC(=O)NC2=O)cc1 [TZ191]
- effect on the activity of the coexisting Am80 at a high concentration [4]: acted to suppress the activity
- effect on the activity of the coexisting Am80 [4]: enhanced the activity of the coexisting Am80
- Ratio of differentiation-induced cells with coexistence of 1×10^-10 Am80 [5]: 28%
- Ratio of differentiation-induced cells with coexistence of 1×10^-10 Am80 [6]: 75%
- Ratio of differentiation-induced cells with coexistence of 1×10^-10 Am80 [7]: 63%
- cell differentiation ability of the compound per se (result in words): inactive

Structure (SMILES): CN1c2ccccc2N=C(c2ccc(/C=C3\SC(=O)NC3=O)cc2)c2cc3c(cc21)C(C)(C)CCC3(C)C [TZ201]
- effect on the activity of the coexisting Am80 [1]: suppressed the activity of the coexisting Am80
- Ratio of differentiation-induced cells with coexistence of 1×10^-9 Am80 [8]: 5%
- Ratio of differentiation-induced cells with coexistence of 1×10^-9 Am80 [2]: 53%
- Ratio of differentiation-induced cells with coexistence of 1×10^-9 Am80 [3]: 64%
- cell differentiation ability of the compound per se (result in words): inactive

Structure (SMILES): CC1(C)CCC(C)(C)c2cc(C(=O)c3ccc(/C=C4\SC(=O)NC4=O)cc3)ccc21 [TZ221]
- Ratio of differentiation-induced cells with coexistence of 3×10^-9 Am80 [9]: 82
- Ratio of differentiation-induced cells with coexistence of 3×10^-9 Am80 [10]: 67
- Ratio of differentiation-induced cells with coexistence of 3×10^-9 Am80 [11]: 54

Structure (SMILES): CC1(C)CCC(C)(C)c2cc(C(=O)c3cccc(/C=C4\SC(=O)NC4=O)c3)ccc21 [TZ223]
- ratios of differentiated cells, Coexisting retinoid (concentration) Am80 (-9) (Table 4): 62
- ratios of differentiated cells, Coexisting retinoid (concentration) Am80 (-9.5) (Table 4): 22
- ratios of differentiated cells, Coexisting retinoid (concentration) Am80 (-10) (Table 4): 5
- ratios of differentiated cells, Coexisting retinoid (concentration) None (Table 4): 4.4

Structure (SMILES): Cc1cc2c(cc1C(=O)c1cccc(/C=C3\SC(=O)NC3=O)c1)C(C)(C)CCC2(C)C [TZ227]
- ratios of differentiated cells, Coexisting retinoid (concentration) Am80 (-9) (Table 4): 11.7
- ratios of differentiated cells, Coexisting retinoid (concentration) Am80 (-9.5) (Table 4): 5.5
- ratios of differentiated cells, Coexisting retinoid (concentration) Am80 (-10) (Table 4): 7
- ratios of differentiated cells, Coexisting retinoid (concentration) None (Table 4): 5.3

Structure (SMILES): C=C(c1ccc(/C=C2\SC(=O)NC2=O)cc1)c1ccc2c(c1)C(C)(C)CCC2(C)C [TZ241]
- Ratio of differentiation-induced cells with coexistence of 3×10^-9 Am80 [9]: 92
- Ratio of differentiation-induced cells with coexistence of 3×10^-9 Am80 [10]: 84
- Ratio of differentiation-induced cells with coexistence of 3×10^-9 Am80 [11]: 76

Structure (SMILES): C=C(c1cccc(/C=C2\SC(=O)NC2=O)c1)c1ccc2c(c1)C(C)(C)CCC2(C)C [TZ243]
- ratios of differentiated cells, Coexisting retinoid (concentration) Am80 (-9) (Table 4): 77
- ratios of differentiated cells, Coexisting retinoid (concentration) Am80 (-9.5) (Table 4): 35
- ratios of differentiated cells, Coexisting retinoid (concentration) Am80 (-10) (Table 4): 5
- ratios of differentiated cells, Coexisting retinoid (concentration) None (Table 4): 4.2

Structure (SMILES): C=C(c1ccc(/C=C2\SC(=O)NC2=O)cc1)c1cc2c(cc1C)C(C)(C)CCC2(C)C [TZ245]
- Ratio of differentiation-induced cells with coexistence of 3×10^-9 Am80 [9]: 88
- Ratio of differentiation-induced cells with coexistence of 3×10^-9 Am80 [10]: 89
- Ratio of differentiation-induced cells with coexistence of 3×10^-9 Am80 [11]: 86

Structure (SMILES): C=C(c1cccc(/C=C2\SC(=O)NC2=O)c1)c1cc2c(cc1C)C(C)(C)CCC2(C)C [TZ247]
- ratios of differentiated cells, Coexisting retinoid (concentration) Am80 (-9) (Table 4): 10
- ratios of differentiated cells, Coexisting retinoid (concentration) Am80 (-9.5) (Table 4): 5.8
- ratios of differentiated cells, Coexisting retinoid (concentration) Am80 (-10) (Table 4): 6.4
- ratios of differentiated cells, Coexisting retinoid (concentration) None (Table 4): 7

Structure (SMILES): CC1(C)CCC(C)(C)c2cc(Nc3ccc(/C=C4\SC(=O)NC4=O)cc3)ccc21 [TZ321]
- Ratio of differentiation-induced cells with coexistence of 3×10^-9 Am80 [9]: 88
- Ratio of differentiation-induced cells with coexistence of 3×10^-9 Am80 [10]: 83
- Ratio of differentiation-induced cells with coexistence of 3×10^-9 Am80 [11]: 55

Structure (SMILES): CN(c1ccc(/C=C2\SC(=O)NC2=O)cc1)c1ccc2c(c1)C(C)(C)CCC2(C)C [TZ325]
- Ratio of differentiation-induced cells with coexistence of 3×10^-9 Am80 [9]: 79
- Ratio of differentiation-induced cells with coexistence of 3×10^-9 Am80 [10]: 83
- Ratio of differentiation-induced cells with coexistence of 3×10^-9 Am80 [11]: 72
